# Measurements from patent US11414384B2, “P300/CBP hat inhibitors” (Constellation Pharmaceuticals, Inc., priority 2018, dated 2022).
# Molecular target: p300 HAT domain (residues 1287-1666) (Homo sapiens (Human), UniProt Q09472)
# Test: p300 HAT SPA assay (scintillation proximity assay, acetylation of biotinylated H3(1-21) peptide)
# Format: biochemical
# Settings: p300 HAT domain; average of at least 2 replicate titrations; read-out: P300 HAT SPA IC50
# Method: In a typical experiment the p300 HAT inhibitory activity of the compounds described herein was determined in accordance with the following experimental method.
# The expressed protein was purified by Ni2+ affinity, followed by anion exchange chromatography. Appropriate fractions were pooled and buffer exchanged into 20 mM Hepes pH 7.5, 150 mM NaCl, and 1 mM TCEP.
# 35 μL of the reaction volume was transferred to a 384-well streptavidin FlashPlate (PerkinElmer) using a Bravo liquid handler (Velocity 11) and incubated for 1.5 hr at RT. […] Data were analyzed in Genedata to determine inhibitor IC50 values.
# Sequence of p300 HAT domain (residues 1287-1666) (Q09472 1287-1666): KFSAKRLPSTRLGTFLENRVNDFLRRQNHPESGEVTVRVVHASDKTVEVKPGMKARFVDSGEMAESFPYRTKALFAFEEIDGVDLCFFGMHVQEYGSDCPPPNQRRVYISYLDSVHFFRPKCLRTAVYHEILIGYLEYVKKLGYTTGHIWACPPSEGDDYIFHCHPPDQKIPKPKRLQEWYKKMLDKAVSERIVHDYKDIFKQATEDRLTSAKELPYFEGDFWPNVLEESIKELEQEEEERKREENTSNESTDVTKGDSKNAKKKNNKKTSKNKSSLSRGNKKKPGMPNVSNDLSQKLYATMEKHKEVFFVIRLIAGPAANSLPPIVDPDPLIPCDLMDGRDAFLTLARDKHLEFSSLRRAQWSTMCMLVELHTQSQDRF
row,Structure (SMILES),IC50
1,"O=C(c1c[nH]c2ccccc12)C(NCCN1CCCCC1=O)c1ccccc1 (single isomer, unassigned) [41 Isomer 1]",> 60000 nM
2,"O=C(c1c[nH]c2ccccc12)C(NCCN1CCCCC1=O)c1ccccc1 (single isomer, unassigned) [41 Isomer 2]",> 60000 nM
3,"Cc1ccc2c(C(=O)C(NCCc3ccc(F)cc3)c3ccccc3)c[nH]c2c1 (single isomer, unassigned) [48 Isomer 1]",> 60000 nM
4,"CN(C)C(=O)CCc1ccc2c(C(=O)C(NCCc3ccc(F)cc3)c3ccccc3)c[nH]c2c1 (single isomer, unassigned) [49 Isomer 1]",> 30000 nM
5,"NS(=O)(=O)c1ccc(CCNC(C(=O)c2c[nH]c3c(C(F)(F)F)cccc23)c2ccccc2)cc1 (single isomer, unassigned) [50 Isomer 1]",6930 nM
6,"NS(=O)(=O)c1ccc(CCNC(C(=O)c2c[nH]c3c(C(F)(F)F)cccc23)c2ccccc2)cc1 (single isomer, unassigned) [50 Isomer 2]",> 30000 nM
7,"COc1ccc2c(C(=O)C(NCCc3ccc(S(N)(=O)=O)cc3)c3ccccc3)c[nH]c2c1 (single isomer, unassigned) [51 Isomer 1]",> 30000 nM
8,"O=C(c1c[nH]c2ccccc12)C(NCCc1ccc(Cl)nc1)c1ccccc1 (single isomer, unassigned) [52 Isomer 1]",15200 nM
9,"O=C(c1c[nH]c2ccccc12)C(NCCc1ccc(Cl)nc1)c1ccccc1 (single isomer, unassigned) [52 Isomer 2]",2830 nM
10,"CCNc1ccc(CCNC(C(=O)c2c[nH]c3ccccc23)c2ccccc2)cn1 (single isomer, unassigned) [53 Isomer 1]",> 30000 nM
11,"COCCNc1ccc(CCNC(C(=O)c2c[nH]c3ccccc23)c2ccccc2)cn1 (single isomer, unassigned) [54 Isomer 1]",> 30000 nM
12,"COCCNc1ccc(CCNC(C(=O)c2c[nH]c3ccccc23)c2ccccc2)cn1 (single isomer, unassigned) [54 Isomer 2]",15700 nM
13,"NS(=O)(=O)c1ccc(CCNC(C(=O)c2c[nH]c3c(Cl)c(Cl)ccc23)c2ccccc2)cc1 (single isomer, unassigned) [55 Isomer 1]",7830 nM
14,"NS(=O)(=O)c1ccc(CCNC(C(=O)c2c[nH]c3c(Cl)c(Cl)ccc23)c2ccccc2)cc1 (single isomer, unassigned) [55 Isomer 2]",> 30000 nM
15,"Cc1ccc2c(C(=O)C(NCCc3ccc(S(N)(=O)=O)cc3)c3ccccc3)c[nH]c2c1 (single isomer, unassigned) [56 Isomer 1]",> 60000 nM
16,"O=C(c1c[nH]c2ccccc12)C(NCCc1ccc(-c2c[nH]nn2)cc1)c1ccccc1 (single isomer, unassigned) [57 Isomer 1]",> 5000 nM
17,"O=C(c1c[nH]c2ccccc12)C(NCCc1ccc(-c2c[nH]nn2)cc1)c1ccccc1 (single isomer, unassigned) [57 Isomer 2]",287 nM
18,"N#Cc1ccc(CCNC(C(=O)c2c[nH]c3ccccc23)c2ccccc2)cc1 (single isomer, unassigned) [58 Isomer 1]",25300 nM
19,"CCC(CNC(C(=O)c1c[nH]c2ccccc12)c1ccccc1)c1ccc(Cl)cc1 (single isomer, unassigned) [59 Isomer 1]",> 30000 nM

row,Structure (SMILES),IC50
1,"CCC(CNC(C(=O)c1c[nH]c2ccccc12)c1ccccc1)c1ccc(Cl)cc1 (single isomer, unassigned) [59 Isomer 2]",13800 nM
2,"CCC(CNC(C(=O)c1c[nH]c2ccccc12)c1ccccc1)c1ccc(Cl)cc1 (single isomer, unassigned) [59 Isomer 3]",> 30000 nM
3,"COc1ccc2c(C(=O)C(NCCc3ccc(Cl)cc3)c3ccccc3)c[nH]c2c1 (single isomer, unassigned) [60 Isomer 1]",27800 nM
4,"O=C(c1c[nH]c2cc(OCc3ccccc3)ccc12)C(NCCc1ccc(F)cc1)c1ccccc1 (single isomer, unassigned) [61 Isomer 1]",> 30000 nM
5,"CN1CCC(c2ccc3c(C(=O)C(NCCc4ccc(C#N)cc4)c4ccccc4)c[nH]c3c2)CC1 (single isomer, unassigned) [64 Isomer 1]",97 nM
6,"CN1CCC(c2ccc3c(C(=O)C(NCCc4ccc(C#N)cc4)c4ccccc4)c[nH]c3c2)CC1 (single isomer, unassigned) [64 Isomer 2]",80 nM
7,"CC(=O)N1CCC(c2ccc3c(C(=O)C(NCCc4ccc(Cl)cc4)c4ccccc4)c[nH]c3c2)CC1 (single isomer, unassigned) [65 Isomer 1]",> 30000 nM
8,"Cn1cc(-c2ccc3c(C(=O)C(NCCc4ccc(S(N)(=O)=O)cc4)c4ccccc4)c[nH]c3c2)cn1 (single isomer, unassigned) [66 Isomer 1]",960 nM
9,"CNC(=O)c1ccc2c(C(=O)C(NCCc3ccc(C#N)cc3)c3ccccc3)c[nH]c2n1 (single isomer, unassigned) [67 Isomer 1]",2360 nM
10,"CNC(=O)c1ccc2c(C(=O)C(NCCc3ccc(C#N)cc3)c3ccccc3)c[nH]c2n1 (single isomer, unassigned) [67 Isomer 2]",> 5000 nM
11,"Cc1cccc2c(C(=O)C(NC(C)Cc3ccc(Cl)cc3Cl)c3ccccc3)c[nH]c12 (single isomer, unassigned) [68 Isomer 2]",> 30000 nM
12,"Cc1cccc2c(C(=O)C(NC(C)Cc3ccc(Cl)cc3Cl)c3ccccc3)c[nH]c12 (single isomer, unassigned) [68 Isomer 3]",> 30000 nM
13,"Cc1cccc2c(C(=O)C(NC(C)Cc3ccc(Cl)cc3Cl)c3ccccc3)c[nH]c12 (single isomer, unassigned) [68 Isomer 4]",> 30000 nM
14,"CCNC(=O)c1ccc2c(C(=O)C(NCC(C)c3ccc(C#N)cc3)c3ccccc3)cnn2c1 (single isomer, unassigned) [69 Isomer 1]",188 nM
15,"CCNC(=O)c1ccc2c(C(=O)C(NCC(C)c3ccc(C#N)cc3)c3ccccc3)cnn2c1 (single isomer, unassigned) [69 Isomer 2]",2870 nM
16,"CCNC(=O)c1ccc2c(C(=O)C(NCC(C)c3ccc(C#N)cc3)c3ccccc3)cnn2c1 (single isomer, unassigned) [69 Isomer 3]",> 5000 nM
17,"CC(CNC(C(=O)c1cnn2cc(C(=O)NC[C@@H](C)O)ccc12)c1ccccc1)c1ccc(C#N)cc1 (single isomer, unassigned) [70 Isomer 1]",> 2000 nM
18,"CC(CNC(C(=O)c1cnn2cc(C(=O)NC[C@@H](C)O)ccc12)c1ccccc1)c1ccc(C#N)cc1 (single isomer, unassigned) [70 Isomer 2]",64.3 nM
19,"CC(CNC(C(=O)c1cnn2cc(C(=O)NC[C@@H](C)O)ccc12)c1ccccc1)c1ccc(C#N)cc1 (single isomer, unassigned) [70 Isomer 3]",747 nM

row,Structure (SMILES),IC50
1,"CC(CNC(C(=O)c1cnn2cc(C(=O)NC[C@@H](C)O)ccc12)c1ccccc1)c1ccc(C#N)cc1 (single isomer, unassigned) [70 Isomer 4]",21.8 nM
2,"CCNC(=O)c1ccc2c(C(=O)C(NCCc3ccc(C#N)cc3Cl)c3ccccc3)c[nH]c2c1 (single isomer, unassigned) [71 Isomer 1]",> 2000 nM
3,"CCNC(=O)c1ccc2c(C(=O)C(NCCc3ccc(C#N)cc3Cl)c3ccccc3)c[nH]c2c1 (single isomer, unassigned) [71 Isomer 2]",17.7 nM
4,"Cn1cc(-c2ccc3c(C(=O)C(NCCc4ccc(C#N)cc4Cl)c4ccccc4)c[nH]c3c2)cn1 (single isomer, unassigned) [72 Isomer 1]",733 nM
5,"Cn1cc(-c2ccc3c(C(=O)C(NCCc4ccc(C#N)cc4Cl)c4ccccc4)c[nH]c3c2)cn1 (single isomer, unassigned) [72 Isomer 2]",42.4 nM
6,"CCNC(=O)c1ccc2c(C(=O)C(NCCc3ccc(C#N)cc3)c3ccccc3)cnn2c1 (single isomer, unassigned) [73 Isomer 1]",286 nM
7,"CCNC(=O)c1ccc2c(C(=O)C(NCCc3ccc(C#N)cc3)c3ccccc3)cnn2c1 (single isomer, unassigned) [73 Isomer 2]",954 nM
8,"O=C(c1c[nH]c2cc(N3CCCC3=O)ccc12)C(NCCc1ccc(Cl)cc1)c1ccccc1 (single isomer, unassigned) [74 Isomer 1]",154 nM
9,"O=C(c1c[nH]c2cc(N3CCCC3=O)ccc12)C(NCCc1ccc(Cl)cc1)c1ccccc1 (single isomer, unassigned) [74 Isomer 2]",160 nM
10,"CCNC(=O)c1ccc2c(C(=O)C(NCC(C)c3ccc(C#N)cc3)c3ccccc3)c[nH]c2c1 (single isomer, unassigned) [75 Isomer 1]",718 nM
11,"CCNC(=O)c1ccc2c(C(=O)C(NCC(C)c3ccc(C#N)cc3)c3ccccc3)c[nH]c2c1 (single isomer, unassigned) [75 Isomer 2]",343 nM
12,"CCNC(=O)c1ccc2c(C(=O)C(NCC(C)c3ccc(C#N)cc3)c3ccccc3)c[nH]c2c1 (single isomer, unassigned) [75 Isomer 3]",447 nM
13,"CCNC(=O)c1ccc2c(C(=O)C(C)NCCc3ccc(C#N)cc3)c[nH]c2c1 (single isomer, unassigned) [76 Isomer 1]",> 5000 nM
14,"CCNC(=O)c1ccc2c(C(=O)C(C)NCCc3ccc(C#N)cc3)c[nH]c2c1 (single isomer, unassigned) [76 Isomer 2]",> 5000 nM
15,"Cn1cc(-c2ccc3c(C(=O)C(NCCc4ccc(F)cc4)c4ccccc4)c[nH]c3c2)cn1 (single isomer, unassigned) [78 Isomer 1]",12900 nM
16,"COc1ccc(CCNC(C(=O)c2c[nH]c3c(C)cccc23)c2ccccc2)cc1 (single isomer, unassigned) [80 Isomer 1]",2480 nM
17,"O=C(c1c[nH]c2cc(-c3cccnc3)ccc12)C(NCCc1ccc(F)cc1)c1ccccc1 (single isomer, unassigned) [81 Isomer 1]",12300 nM
18,"Cn1cc(-c2ccc3c(C(=O)C(NCCc4ccc(Cl)cc4)c4ccccc4)c[nH]c3c2)cn1 (single isomer, unassigned) [83 Isomer 1]",1310 nM
